System: recombinant rabies virus 1088 strain expressing Gaussia Luciferase (GLuc) (1088/GLuc)
Assay type: cell-based
Details: read-out: Anti-rabies activity

Row | SMILES | IC50 [µM]
1 | CC(C)CCN1C[C@@H]2C[C@H]3CN[C@]2(C(=O)NCc2ccc(O)cc2)[C@@H]1[C@@H]3CCc1ccccc1 (relative stereo) [IB-576] | 10 to 30
2 | CC(C)CCN1C[C@@H]2C[C@H]3CN[C@]2(C(=O)NCc2ccc(O)cc2)[C@@H]1[C@@H]3Cc1ccccc1 (relative stereo) [IB-577] | 10 to 30
3 | CC(C)C[C@@H]1[C@@H]2CN[C@@]3(C(=O)NCc4ccc(O)cc4)[C@@H](C2)CN(CC2CCCCC2)[C@@H]13 (relative stereo) [IB-581] | 10 to 30
4 | CC(C)CC[C@@H]1[C@@H]2CN[C@@]3(C(=O)NCc4ccc(O)cc4)[C@@H](C2)CN(Cc2ccc(F)cc2)[C@@H]13 (relative stereo) [IB-582] | 10 to 30
5 | O=C(NCc1ccc(O)cc1)[C@]12NC[C@@H]3C[C@H]1CN(Cc1ccc(F)cc1)[C@H]2[C@@H]3Cc1ccccc1 (relative stereo) [IB-583] | 10 to 30
6 | CC(C)C[C@@H]1[C@@H]2CN[C@@]3(C(=O)NCc4cccc5ccccc45)[C@@H](C2)CN(CCO)[C@@H]13 (relative stereo) [IB-585] | 10 to 30
7 | O=C(NCCO)[C@]12NC[C@@H]3C[C@H]1CN(Cc1cccc4ccccc14)[C@H]2[C@@H]3Cc1ccccc1 (relative stereo) [IB-588] | < 5
8 | O=C(NCCO)[C@]12NC[C@@H]3C[C@H]1CN(CCc1ccccc1)[C@H]2[C@@H]3Cc1cccc2ccccc12 (relative stereo) [IB-593] | 10 to 30
9 | O=C(NCCO)[C@]12NC[C@@H]3C[C@H]1CN(Cc1ccccc1)[C@H]2[C@@H]3Cc1cccc2ccccc12 (relative stereo) [IB-602] | 10 to 30
10 | O=C(O)CCNC(=O)[C@]12NC[C@@H]3C[C@H]1CN(CCO)[C@H]2[C@@H]3Cc1cccc2ccccc12 (relative stereo) [IB-610] | 10 to 30
11 | CC(C)CCN1C[C@@H]2C[C@H]3CN[C@]2(C(=O)NCCC(=O)O)[C@@H]1[C@@H]3CC(C)C (relative stereo) [IB-611] | 10 to 30
12 | CC(C)CC[C@@H]1[C@@H]2CN[C@@]3(C(=O)NCCC(=O)O)[C@@H](C2)CN(CC2CCCCC2)[C@@H]13 (relative stereo) [IB-613] | 10 to 30
13 | O=C(O)CCNC(=O)[C@]12NC[C@@H]3C[C@H]1CN(CC1CCCCC1)[C@H]2[C@@H]3Cc1cccc2ccccc12 (relative stereo) [IB-614] | 10 to 30
14 | O=C(O)CCNC(=O)[C@]12NC[C@@H]3C[C@H]1CN(Cc1ccccc1)[C@H]2[C@@H]3Cc1cccc2ccccc12 (relative stereo) [IB-616] | 10 to 30
15 | O=C(NCc1ccccc1)[C@]12NC[C@@H]3C[C@H]1CN(CCO)[C@H]2[C@@H]3CCc1ccccc1 (relative stereo) [IB-618] | < 5
16 | O=C(NCc1ccccc1)[C@]12NC[C@@H]3C[C@H]1CN(CCO)[C@H]2[C@@H]3Cc1ccccc1 (relative stereo) [IB-619] | 10 to 30
17 | CC(C)CNC(=O)[C@]12NC[C@@H]3C[C@H]1CN(CCO)[C@H]2[C@@H]3Cc1cccc2ccccc12 (relative stereo) [IB-621] | < 5
18 | CC(C)CNC(=O)[C@]12NC[C@@H]3C[C@H]1CN(CCc1ccccc1)[C@H]2[C@@H]3Cc1ccc(O)cc1 (relative stereo) [IB-625] | 10 to 30
19 | CC(C)CNC(=O)[C@]12NC[C@@H]3C[C@H]1CN(Cc1ccc(F)cc1)[C@H]2[C@@H]3CC(C)C (relative stereo) [IB-630] | < 5
20 | CC(C)CNC(=O)[C@]12NC[C@@H]3C[C@H]1CN(Cc1ccc(F)cc1)[C@H]2[C@@H]3Cc1ccc(O)cc1 (relative stereo) [IB-631] | 10 to 30

Row | SMILES | IC50 [µM]
21 | CC(C)CNC(=O)[C@]12NC[C@@H]3C[C@H]1CN(CC(C)C)[C@H]2[C@@H]3CCc1ccccc1 (relative stereo) [IB-633] | < 5
22 | CC(C)CCN1C[C@@H]2C[C@H]3CN[C@]2(C(=O)NCCC(N)=O)[C@@H]1[C@@H]3CCc1ccccc1 (relative stereo) [IB-636] | 10 to 30
23 | NC(=O)CCNC(=O)[C@]12NC[C@@H]3C[C@H]1CN(CC1CCCCC1)[C@H]2[C@@H]3Cc1ccccc1 (relative stereo) [IB-637] | < 5
24 | O=C(NCCO)[C@]12NC[C@@H]3C[C@H]1CN(CCc1ccccc1)[C@H]2[C@@H]3Cc1ccccc1 (relative stereo) [IB-640] | < 5
25 | CC(C)C[C@@H]1[C@@H]2CN[C@@]3(C(=O)NCCO)[C@@H](C2)CN(CCc2ccccc2)[C@@H]13 (relative stereo) [IB-641] | 10 to 30
26 | O=C(NCc1ccc(F)cc1)[C@]12NC[C@@H]3C[C@H]1CN(CCc1ccccc1)[C@H]2[C@@H]3Cc1ccc(O)cc1 (relative stereo) [IB-642] | < 5
27 | CC(C)C[C@@H]1[C@@H]2CN[C@@]3(C(=O)NCCO)[C@@H](C2)CN(Cc2cccc4ccccc24)[C@@H]13 (relative stereo) [IB-643] | 10 to 30
28 | CC(C)C[C@@H]1[C@@H]2CN[C@@]3(C(=O)NCCO)[C@@H](C2)CN(CC2CCCCC2)[C@@H]13 (relative stereo) [IB-646] | 10 to 30
29 | CC(C)CCNC(=O)[C@]12NC[C@@H]3C[C@H]1CN(CC1CCCCC1)[C@H]2[C@@H]3Cc1ccc(O)cc1 (relative stereo) [IB-648] | 10 to 30
30 | O=C(NCCO)[C@]12NC[C@@H]3C[C@H]1CN(Cc1ccc(F)cc1)[C@H]2[C@@H]3Cc1ccccc1 (relative stereo) [IB-649] | 10 to 30
31 | CC(C)C[C@@H]1[C@@H]2CN[C@@]3(C(=O)NCCO)[C@@H](C2)CN(Cc2ccc(F)cc2)[C@@H]13 (relative stereo) [IB-650] | 10 to 30
32 | CCCCCCNC(=O)[C@]12NC[C@@H]3C[C@H]1CN(Cc1ccc(F)cc1)[C@H]2[C@@H]3Cc1ccc(O)cc1 (relative stereo) [IB-656] | < 5
33 | CC(C)CC[C@@H]1[C@@H]2CN[C@@]3(C(=O)NCc4ccc(F)cc4)[C@@H](C2)CN(CCO)[C@@H]13 (relative stereo) [IB-657] | 10 to 30
34 | CC(C)CCN1C[C@@H]2C[C@H]3CN[C@]2(C(=O)NCCO)[C@@H]1[C@@H]3CCc1ccccc1 (relative stereo) [IB-658] | 10 to 30
35 | CC(C)CCN1C[C@@H]2C[C@H]3CN[C@]2(C(=O)NCCO)[C@@H]1[C@@H]3Cc1cccc2ccccc12 (relative stereo) [IB-659] | < 5
36 | O=C(NCCO)[C@]12NC[C@@H]3C[C@H]1CN(CC1CCCCC1)[C@H]2[C@@H]3CCc1ccccc1 (relative stereo) [IB-663] | < 5
37 | CC(C)CC[C@@H]1[C@@H]2CN[C@@]3(C(=O)NCCO)[C@@H](C2)CN(Cc2ccc(F)cc2)[C@@H]13 (relative stereo) [IB-668] | < 5
38 | O=C(NCCO)[C@]12NC[C@@H]3C[C@H]1CN(Cc1ccc(F)cc1)[C@H]2[C@@H]3CCc1ccccc1 (relative stereo) [IB-669] | 10 to 30
39 | O=C(NCCO)[C@]12NC[C@@H]3C[C@H]1CN(Cc1ccccc1)[C@H]2[C@@H]3Cc1ccccc1 (relative stereo) [IB-676] | 10 to 30
40 | CC(C)CCNC(=O)[C@]12NC[C@@H]3C[C@H]1CN(Cc1ccccc1)[C@H]2[C@@H]3Cc1ccc(O)cc1 (relative stereo) [IB-678] | < 5

Row | SMILES | IC50 [µM]
41 | CC(C)CC[C@@H]1[C@@H]2CN[C@@]3(C(=O)NCCO)[C@@H](C2)CN(Cc2ccccc2)[C@@H]13 (relative stereo) [IB-680] | 10 to 30
42 | O=C(NCCO)[C@]12NC[C@@H]3C[C@H]1CN(Cc1ccccc1)[C@H]2[C@@H]3CCc1ccccc1 (relative stereo) [IB-681] | 10 to 30
43 | CC(C)CCNC(=O)[C@]12NC[C@@H]3C[C@H]1CN(CC(C)C)[C@H]2[C@@H]3Cc1ccc(O)cc1 (relative stereo) [IB-684] | 10 to 30
44 | CC(C)CN1C[C@@H]2C[C@H]3CN[C@]2(C(=O)NCCO)[C@@H]1[C@@H]3Cc1cccc2ccccc12 (relative stereo) [IB-687] | 10 to 30
45 | CC(C)CCNC(=O)[C@]12NC[C@@H]3C[C@H]1CN(CC(C)C)[C@H]2[C@@H]3CCc1ccccc1 (relative stereo) [IB-688] | < 5
46 | CC(C)CC[C@@H]1[C@@H]2CN[C@@]3(C(=O)NCc4ccccc4)[C@@H](C2)CN(CCC(=O)O)[C@@H]13 (relative stereo) [IB-694] | 10 to 30
47 | CC(C)CCN1C[C@@H]2C[C@H]3CN[C@]2(C(=O)NCCC(N)=O)[C@@H]1[C@@H]3Cc1cccc2ccccc12 (relative stereo) [IB-703] | < 5
48 | CC(C)CCN1C[C@@H]2C[C@H]3CN[C@]2(C(=O)NCC(C)C)[C@@H]1[C@@H]3CC(C)C (relative stereo) [IB-753] | < 5
49 | CC(C)C[C@@H]1[C@@H]2CN[C@@]3(C(=O)NCc4ccccc4)[C@@H](C2)CN(CCc2ccccc2)[C@@H]13 (relative stereo) [IB-757] | < 5
50 | CC(C)CNC(=O)[C@]12NC[C@@H]3C[C@H]1CN(CCc1ccccc1)[C@H]2[C@@H]3Cc1ccccc1 (relative stereo) [IB-759] | < 5
51 | CC(C)CNC(=O)[C@]12NC[C@@H]3C[C@H]1CN(CCc1ccccc1)[C@H]2[C@@H]3CC(C)C (relative stereo) [IB-760] | < 5
52 | CC(C)CNC(=O)[C@]12NC[C@@H]3C[C@H]1CN(Cc1cccc4ccccc14)[C@H]2[C@@H]3CC(C)C (relative stereo) [IB-762] | < 5
53 | CC(C)CNC(=O)[C@]12NC[C@@H]3C[C@H]1CN(Cc1cccc4ccccc14)[C@H]2[C@@H]3Cc1ccc(O)cc1 (relative stereo) [IB-763] | 10 to 30
54 | CC(C)CNC(=O)[C@]12NC[C@@H]3C[C@H]1CN(CC1CCCCC1)[C@H]2[C@@H]3Cc1ccc(O)cc1 (relative stereo) [IB-770] | 10 to 30
55 | O=C(NCc1ccccc1)[C@]12NC[C@@H]3C[C@H]1CN(Cc1ccc(F)cc1)[C@H]2[C@@H]3Cc1ccccc1 (relative stereo) [IB-772] | < 5
56 | CC(C)C[C@@H]1[C@@H]2CN[C@@]3(C(=O)NCc4ccccc4)[C@@H](C2)CN(Cc2ccc(F)cc2)[C@@H]13 (relative stereo) [IB-773] | < 5
57 | CC(C)CNC(=O)[C@]12NC[C@@H]3C[C@H]1CN(Cc1ccc(F)cc1)[C@H]2[C@@H]3CCc1ccccc1 (relative stereo) [IB-774] | < 5
58 | O=C(NCc1ccccc1)[C@]12NC[C@@H]3C[C@H]1CN(Cc1ccccc1)[C@H]2[C@@H]3Cc1cccc2ccccc12 (relative stereo) [IB-777] | < 5
59 | CC(C)CCNC(=O)[C@]12NC[C@@H]3C[C@H]1CN(CC(C)C)[C@H]2[C@@H]3Cc1ccccc1 (relative stereo) [IB-780] | < 5
